# Reference: paper PMC3516806 (Scientific Reports, 2012)
# Target: BoGT6a (Bacteroides ovatus, UniProt A0ABU3IMV7)
# Assay: ITC, […]°C, HEPES pH […], no metal
# Format: binding
structure (smiles),measurement,value
CC(=O)N[C@H]1[C@@H](OP(=O)(O)OP(=O)(O)OC[C@H]2O[C@@H](n3ccc(=O)[nH]c3=O)[C@H](O)[C@@H]2O)O[C@H](CO)[C@H](O)[C@@H]1O [UDP-GalNAc],Kd,59 µM
